Data set [1] in a line: refractive index (Na D-line) (dimensionless). Particulars: 298.15 K; 859 kPa; Liquid; Standard Abbe refractometry.
The conditions of data set [2]: 298.15 K; 85.9 kPa; Liquid; Vibrating tube method.

Numbers after ± are expanded uncertainties.

A word on the refractive index: it is the speed of light in vacuum divided by its phase velocity in the sample. The term mass density denotes mass per unit of volume.

With `CN(C)C=O` [dimethylformamide], in data set [1], the refractive index was determined as 1.4281 ± 0.0004. The mass density in data set [2] is 944.53 ± 1 kg/m3.

Source of the values: the NIST ThermoML archive (doi:10.1016/j.fluid.2013.05.022).
